Measured values as given in patent EP0745595A1, “3-(3-Aryloxyphenyl)-1-(substituted methyl)-s-triazine-2,4,6-oxo or thiotrione herbicidal agents” (American Cyanamid Company, priority 1995, dated 1996).

Assays:
Type in all cases: in vivo
[1] = test system: AMBROSIA ARTEMISIIFOLIA, L.; assay: Postemergence herbicidal evaluation, AMBEL (Ragweed, Common)
Procedure, shortened: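 Postemergence herbicidal activity on AMBEL (common ragweed) was assessed on two-week-old seedlings grown in jiffy flats. Treatment solutions of 50/50 acetone/water with 0.5% TWEEN®20 surfactant were sprayed at 40 psi. After four to five weeks in the greenhouse, plants were scored 0-9 against a control for stand, vigor, malformation, size, chlorosis and overall appearance, with multiple tests averaged.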

CASSIA OBTUSIFOLIA, L. = assay: Postemergence herbicidal evaluation, CASOB (Sicklepod); design: key to CASOB rating / Herbicidal effect rating, CASOB / CASOB: 0-9 visual rating scale vs untreated control
Procedure, shortened: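 Postemergence foliar spray at approximately 0.125–0.500 kg/ha onto two-week seedlings; greenhouse hold, then 0–9 visual injury rating after 4–5 weeks.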

CHENOPODIUM ALBUM, L. [2] = assay: Postemergence herbicidal evaluation, CHEAL (Lambsquarters, Common)
Procedure, shortened: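 Postemergence herbicidal activity on Chenopodium album was tested by spraying two-week-old seedlings grown in jiffy flats with compound in acetone/water (50/50) plus 0.5% TWEEN®20, using a 40 psi nozzle. Four to five weeks after treatment, stand, vigor, malformation, size, chlorosis and overall appearance were scored 0-9 relative to controls, with repeat tests averaged.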

IPOMOEA SPP. = assay: Postemergence herbicidal evaluation, IPOSS (Morningglory spp.); conditions: for IPOSS, herbicide rating (0-9): rated four to five weeks after treatment, averaged
Procedure, shortened: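 In this greenhouse postemergence herbicide test on Ipomoea spp. (morningglory), compounds in 50/50 acetone/water with 0.5% TWEEN®20 were sprayed at 40 psi onto seedlings about two weeks old grown in jiffy flats. After four to five weeks, injury was scored on a 0-9 scale covering stand, vigor, malformation, size, chlorosis and overall appearance versus control, with repeat tests averaged.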

GALIUM APARINE = assay: Postemergence herbicidal evaluation, GALAP (Galium); design: key to GALAP rating / Herbicidal effect rating, GALAP / GALAP: 0-9 visual rating scale vs untreated control
Procedure, shortened: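 In this postemergence greenhouse test, two-week-old Galium aparine seedlings grown in jiffy flats received a 40 psi spray of compound in acetone/water (50/50) with 0.5% TWEEN®20 surfactant. After four to five weeks, stand, vigor, malformation, size, chlorosis and overall appearance were compared with untreated controls on a 0-9 scale, averaging multiple tests.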

[3] = test system: ECHINOCHLOA CRUS-GALLI, (L) BEAU; assay: Postemergence herbicidal evaluation, ECHCG (Barnyardgrass); design: key to ECHCG rating / Herbicidal effect rating, ECHCG / ECHCG: 0-9 visual rating scale vs untreated control
Procedure, shortened: (§1)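 Each value is a 0–9 visual rating of plant appearance compared with control, recorded 4–5 weeks after a 0.125–0.500 kg/ha spray, with multiple tests averaged.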

[4] = test system: SETARIA VIRIDIS, (L) BEAU; assay: Postemergence herbicidal evaluation, SETVI (Foxtail, Green); design: key to SETVI rating / Herbicidal effect rating, SETVI / SETVI: 0-9 visual rating scale vs untreated control; conditions: for SETVI, herbicide rating (0-9): rated four to five weeks after treatment, averaged
Procedure, shortened: as §1

[5] = test system: TRITICUM AESTIVUM, CV. APOLLO; assay: Postemergence herbicidal evaluation, TRZAWO (Wheat, Winter, CV. APOLLO)
Procedure, shortened: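 This greenhouse postemergence test applied compounds to roughly two-week-old wheat seedlings grown in jiffy flats. The spray solution was 50/50 acetone/water with 0.5% TWEEN®20, a polyoxyethylene sorbitan monolaurate, sprayed from a nozzle run at 40 psi. After four to five weeks of standard greenhouse care, injury was scored from 0 to 9 by comparing stand, vigor, malformation, size, chlorosis and overall appearance with a control. Multiple tests were averaged.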

ZEA MAYS L. = assay: Postemergence herbicidal evaluation, ZEAMX (Corn, Field); conditions: for ZEAMX, herbicide rating (0-9): crop, rated four to five weeks after treatment, averaged
Procedure, shortened: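 This greenhouse postemergence test treated corn plants about two weeks old. Compounds in a 50/50 acetone/water mixture with 0.5% TWEEN®20 were applied through a spray nozzle at 40 psi. After four to five weeks, injury was scored 0-9 against an untreated control, judging stand, vigor, malformation, size, chlorosis and overall appearance. Repeated tests were averaged.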

CHENOPODIUM ALBUM, L. [6] = assay: Preemergence herbicidal evaluation, CHEAL (Lambsquarters, Common); conditions: four to five weeks after treatment
Procedure, shortened: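 Seeds mixed with potting soil were planted on about one inch of soil in cups, then sprayed with aqueous acetone solution of test compound at about 0.125 to 0.50 kg per hectare. Plants grown under greenhouse conditions; visual rating on a 0-9 scale versus untreated control at 4-5 weeks.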

[7] = test system: ORYZA SATIVA, L. TEBONNET; assay: Rice tolerance to post-transplant applications under flooded paddy conditions, ORYSAT (Rice, Tebonnet); conditions: for ORYSAT herbicidal rating (rice tolerance): post-transplant rice, rated three to four weeks after treatment; for ORYSAT: post-transplanted rice;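 for ORYSAT herbicidal rating (rice tolerance): applied to flooded soil surface three days after transplanting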
Procedure, shortened: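 Greenhouse pots of silt loam, each with two transplanted ten-day-old seedlings, are held under 1.5 to 3 cm of standing water. Three days later the compound is applied to the flooded surface at about 0.5, 0.25, 0.125 or 0.063 kg/ha. Damage is scored visually 0-9 after 3-4 weeks.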

In the case of `COC(=O)Cn1c(=O)n(C)c(=O)n(-c2cc(Oc3c(F)cc(C(F)(F)F)cc3Cl)ccc2F)c1=O` [Compound 4, Methyl 3-{5-[(2-chloro-α,α,α,6-tetrafluoro-p-tolyl)oxy]-2-fluorophenyl}tetrahydro-5-methyl-2,4,6-trioxo-s-triazine-1(2H)-acetate], the “Herbicidal effect rating, AMBEL” value ([1]; 0.031 kg/ha) is reported as 7.2, the “Herbicidal effect rating, AMBEL” value ([1]; 0.063 kg/ha) is reported as 8.0 and the “Herbicidal effect rating, AMBEL” value ([1]; 0.125 kg/ha) is reported as 8.5. The “Herbicidal effect rating, AMBEL” value ([1]; 0.250 kg/ha) was 8.9, the “Herbicidal effect rating, CASOB” value (CASSIA OBTUSIFOLIA, L.; 0.031 kg/ha) was 8.6 and the “Herbicidal effect rating, CASOB” value (CASSIA OBTUSIFOLIA, L.; 0.063 kg/ha) was 8.4. For the same compound, the “Herbicidal effect rating, CASOB” value (CASSIA OBTUSIFOLIA, L.; 0.125 kg/ha) was 9.0, the “Herbicidal effect rating, CASOB” value (CASSIA OBTUSIFOLIA, L.; 0.250 kg/ha) was 8.4 and the “Herbicidal effect rating, CHEAL” value (CHENOPODIUM ALBUM, L. [2]; 0.031 kg/ha) was 7.9. The “Herbicidal effect rating, CHEAL” value (CHENOPODIUM ALBUM, L. [2]; 0.063 kg/ha) was 8.8, the “Herbicidal effect rating, CHEAL” value (CHENOPODIUM ALBUM, L. [2]; 0.125 kg/ha) was 8.9 and the “Herbicidal effect rating, CHEAL” value (CHENOPODIUM ALBUM, L. [2]; 0.250 kg/ha) was 9.0. The “Herbicidal effect rating, IPOSS” value (IPOMOEA SPP.; 0.031 kg/ha) was 8.9, the “Herbicidal effect rating, IPOSS” value (IPOMOEA SPP.; 0.063 kg/ha) was 8.9 and the “Herbicidal effect rating, IPOSS” value (IPOMOEA SPP.; 0.125 kg/ha) was 9.0. For the same compound, the “Herbicidal effect rating, IPOSS” value (IPOMOEA SPP.; 0.250 kg/ha) was 9.0, the “IPOSS, herbicide rating (0-9)” value (IPOMOEA SPP.; Rate 0.125 kg/ha) was 9.0 and the “IPOSS, herbicide rating (0-9)” value (IPOMOEA SPP.; Rate 0.250 kg/ha) was 9.0. The “IPOSS, herbicide rating (0-9)” value (IPOMOEA SPP.; Rate 0.500 kg/ha) was 9.0, the “Herbicidal effect rating, GALAP” value (GALIUM APARINE; 0.031 kg/ha) was 7.3 and the “Herbicidal effect rating, GALAP” value (GALIUM APARINE; 0.063 kg/ha) was 8.4. For the same compound, the “Herbicidal effect rating, GALAP” value (GALIUM APARINE; 0.125 kg/ha) was 8.8, the “Herbicidal effect rating, GALAP” value (GALIUM APARINE; 0.250 kg/ha) was 8.1 and the “Herbicidal effect rating, ECHCG” value ([3]; 0.031 kg/ha) was 3.8. The “Herbicidal effect rating, ECHCG” value ([3]; 0.063 kg/ha) was 6.0, the “Herbicidal effect rating, ECHCG” value ([3]; 0.125 kg/ha) was 8.2 and the “Herbicidal effect rating, ECHCG” value ([3]; 0.250 kg/ha) was 8.9. For the same compound, the “Herbicidal effect rating, SETVI” value ([4]; 0.031 kg/ha) was 6.9, the “Herbicidal effect rating, SETVI” value ([4]; 0.063 kg/ha) was 8.6 and the “Herbicidal effect rating, SETVI” value ([4]; 0.125 kg/ha) was 9.0. For the same compound, the “Herbicidal effect rating, SETVI” value ([4]; 0.250 kg/ha) was 9.0, the “SETVI, herbicide rating (0-9)” value ([4]; Rate 0.125 kg/ha) was 9.0 and the “SETVI, herbicide rating (0-9)” value ([4]; Rate 0.250 kg/ha) was 9.0. The “SETVI, herbicide rating (0-9)” value ([4]; Rate 0.500 kg/ha) was 9.0, the “Herbicidal effect rating, TRZAWO” value ([5]; 0.031 kg/ha) was 6.3 and the “Herbicidal effect rating, TRZAWO” value ([5]; 0.063 kg/ha) was 7.3. The “Herbicidal effect rating, TRZAWO” value ([5]; 0.125 kg/ha) was 8.1, the “Herbicidal effect rating, TRZAWO” value ([5]; 0.250 kg/ha) was 8.2 and the “Herbicidal effect rating, ZEAMX” value (ZEA MAYS L.; 0.031 kg/ha) was 8.1. For the same compound, the “Herbicidal effect rating, ZEAMX” value (ZEA MAYS L.; 0.063 kg/ha) was 8.7, the “Herbicidal effect rating, ZEAMX” value (ZEA MAYS L.; 0.125 kg/ha) was 8.9 and the “Herbicidal effect rating, ZEAMX” value (ZEA MAYS L.; 0.250 kg/ha) was 8.9. The “ZEAMX, herbicide rating (0-9)” value (ZEA MAYS L.; Rate 0.125 kg/ha) was 8.8, the “ZEAMX, herbicide rating (0-9)” value (ZEA MAYS L.; Rate 0.250 kg/ha) was 8.8 and the “ZEAMX, herbicide rating (0-9)” value (ZEA MAYS L.; Rate 0.500 kg/ha) was 8.8. It also gave a CHEAL rating (CHENOPODIUM ALBUM, L. [6]; Rate 0.125 kg/ha) of 9.0, a CHEAL rating (CHENOPODIUM ALBUM, L. [6]; Rate 0.250 kg/ha) of 9.0 and a CHEAL rating (CHENOPODIUM ALBUM, L. [6]; Rate 0.500 kg/ha) of 9.0. For the same compound, the “ORYSAT herbicidal rating (rice tolerance)” value (from here on “ORYSAT herbicidal rating”) ([7]; Rate 0.063 kg/ha) was 2.0, the “ORYSAT herbicidal rating” value ([7]; Rate 0.125 kg/ha) was 3.2 and the “ORYSAT herbicidal rating” value ([7]; Rate 0.250 kg/ha) was 3.8. The “ORYSAT herbicidal rating” value ([7]; Rate 0.500 kg/ha) was 4.7, the ORYSAT ([7]; Rate 0.031 kg/ha) was 1.6 and the ORYSAT ([7]; Rate 0.063 kg/ha) was 2.1. It also gave an ORYSAT ([7]; Rate 0.125 kg/ha) of 3.6 and an ORYSAT ([7]; Rate 0.250 kg/ha) of 3.7.
